Read-outs that look alike come from different tables or passages of the source.
Experiments:
[1] = test system: OVCAR-3 tumor cells implanted in Balb/C nude mice; test: In vivo activity, OVCAR-3 tumor xenograft, tumor growth inhibition; parameters: species or system mouse; details: OVCAR3 model
Experimental: (§1) Assessment of In Vivo Activity
(§2) OVCAR-3 (ATCC) tumor cells were maintained in vitro in RPMI-1640 medium supplemented with 20% fetal bovine serum, 0.01 mg/mL bovine insulin and 1% Anti-Anti at 37° C. in an atmosphere of 5% CO2 in air. HCC15 (DSMZ) tumor cells were maintained in vitro in RPMI 1640 medium supplemented with 10% fetal bovine serum and 1% Anti-Anti at 37° C. in an atmosphere of 5% CO2 in air.
(§3) The tumor cells were sub-cultured twice weekly. The cells growing in an exponential growth phase were harvested and counted for tumor inoculation.
(§4) Tumor cells (10×10^6) in 0.2 mL of PBS mixed with Matrigel (50:50) were inoculated subcutaneously on the right flank of each mouse. When the average tumor volume reached 110-175 mm^3, animals were randomized into groups of 10 and treatment started. OVCAR-3 cells were implanted in Balb/C nude mice, and HCC15 cell were implanted in SCID Beige mice.
(§5) Compounds were dosed once or twice a day (12 h) orally. Tumor Growth Inhibition (TGI) was calculated using the formula: TGI (%)=[1−(TN−T0)/(VN−V0)]×100; TN is the average tumor volume of a treatment group at the indicated timepoint, T0 is the average tumor volume of the treatment group on treatment day 0, VN is the average tumor volume of the vehicle control group at the indicated timepoint, and V0 is the average tumor volume of the vehicle group on treatment day 0. P value was calculated based on tumor size by One-Way ANOVA with GraphPad Prism 9.4.0 compared with the vehicle group, respectively. **** indicates p<0.0001.
(§6) The tumor volume of vehicle- and compound-treated mice as a function of time after start of treatment and the results of treatments with selected compounds on SCID Beige mice or nude mice implanted with HCC15 or OVCAR-3 are shown in FIGS. 1A-1E.

[2] = test system: HCC15 cells; test: Cell viability of KIF18a-sensitive cell lines, HCC15 (Cell Titre-Glo, 7 days); format: cell-based; details: HCC-15 cells, 7 days, Cell Titre-Glo, read-out: HCC-15 IC50
Outline: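 Seeding was 24 h before dosing: HCC15 at 600 cells/well in RPMI-1640/10% FBS, OVCAR-3 at 1000 cells/well in RPMI-1640/20% FBS plus insulin, JIMT-1 at 1000 cells/well in DMEM/10% FBS. After serially diluted compound, cells grew 7 days at 37° C. Cell Titre-Glo luminescence was converted to ATP; IC50 came from a four-parameter fit.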

[3] = test system: HCC15 tumor cells implanted in SCID Beige mice; test: In vivo activity, HCC15 tumor xenograft, tumor growth inhibition; parameters: species or system mouse; details: HCC15 model
Experimental: as §1, §2, §3, §4, §5, §6

[4] = biological target: KIF18a-Microtubule Complex (Homo sapiens (Human), UniProt Q8NI77); test: Binding kinetics to KIF18a-microtubule complex (global progress curve analysis); details: for Ki: read-out: KI (determined from binding kinetic assay koff/kon), koff/kon; for koff: read-out: koff (off-rate from binding kinetics assay)
Chain of KIF18a-Microtubule Complex (Q8NI77 whole entry, looked up): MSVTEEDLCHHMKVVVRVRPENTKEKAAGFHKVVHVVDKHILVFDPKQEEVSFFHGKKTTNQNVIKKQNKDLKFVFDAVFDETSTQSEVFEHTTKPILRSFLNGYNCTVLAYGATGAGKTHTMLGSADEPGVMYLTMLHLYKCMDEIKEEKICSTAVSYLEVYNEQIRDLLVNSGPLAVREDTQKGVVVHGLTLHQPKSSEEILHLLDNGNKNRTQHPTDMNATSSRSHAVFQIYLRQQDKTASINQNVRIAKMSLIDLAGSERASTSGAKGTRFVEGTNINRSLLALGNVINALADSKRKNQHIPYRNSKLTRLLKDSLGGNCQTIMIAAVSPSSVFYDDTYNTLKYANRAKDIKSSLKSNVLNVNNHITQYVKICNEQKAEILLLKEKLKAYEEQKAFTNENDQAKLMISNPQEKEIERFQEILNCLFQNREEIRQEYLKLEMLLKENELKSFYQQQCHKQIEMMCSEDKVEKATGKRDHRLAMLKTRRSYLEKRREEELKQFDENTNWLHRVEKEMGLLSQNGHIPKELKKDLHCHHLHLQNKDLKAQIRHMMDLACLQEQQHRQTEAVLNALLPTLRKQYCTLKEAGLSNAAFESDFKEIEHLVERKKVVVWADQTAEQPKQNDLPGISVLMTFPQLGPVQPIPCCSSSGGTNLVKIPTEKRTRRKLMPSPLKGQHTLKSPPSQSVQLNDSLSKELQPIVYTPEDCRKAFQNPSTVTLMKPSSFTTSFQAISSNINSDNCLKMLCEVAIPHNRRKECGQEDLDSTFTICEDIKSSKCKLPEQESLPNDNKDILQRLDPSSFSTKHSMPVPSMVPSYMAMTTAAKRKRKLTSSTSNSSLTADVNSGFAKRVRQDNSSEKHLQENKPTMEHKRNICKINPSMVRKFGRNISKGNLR
Chain of KIF18a-Microtubule Complex (Q2XVP4 whole entry partner, looked up): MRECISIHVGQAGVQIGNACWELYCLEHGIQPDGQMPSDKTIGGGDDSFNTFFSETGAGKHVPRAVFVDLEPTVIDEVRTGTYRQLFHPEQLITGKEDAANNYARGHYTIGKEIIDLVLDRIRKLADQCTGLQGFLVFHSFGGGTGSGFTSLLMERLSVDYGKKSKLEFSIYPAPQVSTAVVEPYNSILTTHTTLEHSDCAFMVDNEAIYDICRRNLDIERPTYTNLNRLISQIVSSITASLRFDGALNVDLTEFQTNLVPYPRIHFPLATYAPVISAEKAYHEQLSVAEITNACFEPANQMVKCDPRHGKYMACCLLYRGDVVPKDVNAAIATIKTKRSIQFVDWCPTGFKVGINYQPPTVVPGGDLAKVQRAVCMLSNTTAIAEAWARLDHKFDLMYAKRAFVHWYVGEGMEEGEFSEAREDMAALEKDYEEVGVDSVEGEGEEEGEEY
Chain of KIF18a-Microtubule Complex (P02554 whole entry partner, looked up): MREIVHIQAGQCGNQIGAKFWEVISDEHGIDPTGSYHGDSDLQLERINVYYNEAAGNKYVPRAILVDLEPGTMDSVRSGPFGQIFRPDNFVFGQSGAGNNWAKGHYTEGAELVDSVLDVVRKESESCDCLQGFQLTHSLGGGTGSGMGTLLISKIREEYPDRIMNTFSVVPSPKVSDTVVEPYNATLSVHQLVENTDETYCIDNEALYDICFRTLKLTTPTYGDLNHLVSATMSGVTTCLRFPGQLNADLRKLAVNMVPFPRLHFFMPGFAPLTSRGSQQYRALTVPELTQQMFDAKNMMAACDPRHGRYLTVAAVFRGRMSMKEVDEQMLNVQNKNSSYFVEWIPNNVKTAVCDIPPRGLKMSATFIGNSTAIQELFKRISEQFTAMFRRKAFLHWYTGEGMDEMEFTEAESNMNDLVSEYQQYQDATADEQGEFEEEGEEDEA
Outline: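 kon and koff determined by global progress curve analysis, with ADP formation measured by ADP-Glo. Time- and dose-dependent progress curves were globally fitted to a Michaelis-Menten model with one-step slow-binding inhibition.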

[5] = test system: NIH:OVCAR-3 cells; test: Cell viability of KIF18a-sensitive cell lines, NIH:OVCAR-3 (Cell Titre-Glo, 7 days); format: cell-based; details: NIH-OVCAR3 cells, 7 days, Cell Titre-Glo, read-out: NIH-OVCAR3 IC50
Experimental: (§7) Cell Viability of KIF18a-Sensitive Cell Lines
(§8) Cell lines were seeded as follows 24 hours before compound treatment: HCC15 (Korean Cell Line Bank) 600 cell/well, 95 μL of RPMI-1640 media supplemented with 100 units/mL penicillin, 100 units/mL streptomycin and 10% FBS; NIH:OVCAR-3 (ATCC), 1000 cell/well, 95 μL of RPMI-1640 media supplemented with 100 units/mL penicillin, 100 units/mL streptomycin, 0.01 mg/mL bovine insulin, and 20% FBS; JIMT-1 (Addexbio) 1000 cell/well, 95 μL of DMEM media supplemented with 100 units/mL penicillin, 100 units/mL streptomycin, and 10% FBS.
(§9) Test compounds were added to cells in a 20× dilution scheme by adding 5 μL of serially diluted compound to the plate, and the treated cells were incubated for an additional 7 days in a 37° C., 5% CO2 incubator. DMSO was used as the negative control (0% effect), and wells omitting cells were used as the positive control (100% effect). The cells were incubated for seven days, and cell viability determined via the Promega Cell Titre-Glo® Assay kit. Luminescence units were converted to ATP concentrations via an ATP standard curve (10 point, 2-fold dilution from 5 uM). % Inhibition was calculated for each well as: ([max−min]−[test−min])/[max−min]. IC50 values were calculated from concentration vs. % Inhibition data via a four-parameter variable slope model.

[6] = biological target: hKIF18A (1-374) (Homo sapiens (Human), UniProt Q8NI77); test: Inhibition of KIF18A microtubule-dependent ATPase activity (ADP-Glo)
Chain of hKIF18A (1-374) (Q8NI77 whole entry, looked up): as the sequence (Q8NI77 whole entry, looked up) above
Chain of hKIF18A (1-374) (Q2XVP4 whole entry partner, looked up): as the sequence (Q2XVP4 whole entry partner, looked up) above
Chain of hKIF18A (1-374) (P02554 whole entry partner, looked up): as the sequence (P02554 whole entry partner, looked up) above

[7] = test system: JIMT-1 cells; test: Cell viability of KIF18a-sensitive cell lines, JIMT-1 (Cell Titre-Glo, 7 days); format: cell-based; details: JIMT-1 cells, 7 days, Cell Titre-Glo, read-out: JIMT-1 IC50
Experimental: as §7, §8, §9

[8] = KIF18A microtubule-dependent ATPase activity, biochemical assay

| IC50 ([2]; HCC15, 168 h) [nM] | kon (on-rate from binding kinetics assay) ([4]; global progress curve analysis) [M⁻¹ s⁻¹] | disc. t1/2 (dissociation half-life ln(2)/koff) [4] [h] | Ki [4] [nM] | koff [4] [s⁻¹] | IC50 ([5]; Homo sapiens, OVCAR-3, 168 h) [nM] | IC50 [6, 8] [nM] | Structure (SMILES) | TGI ([1]; 30 mg/kg QD PO) [%] | TGI ([1]; 60 mg/kg QD PO) [%] | TGI ([3]; 10 mg/kg BID PO) [%] | TGI ([3]; 30 mg/kg BID PO) [%] | TGI ([3]; 60 mg/kg BID PO) [%] | IC50 ([7]; Homo sapiens, 168 h) [nM] | further results |
| --- | --- | --- | --- | --- | --- | --- | --- | --- | --- | --- | --- | --- | --- | --- |
| 5.1 | 15000 | 40 | 0.34 | 5e-06 | 5.1 | 16 | CCS(=O)(=O)Nc1ccc2c(c1)C1(CCC3(CC3)CC1)CN2C(=O)c1cccc(S(=O)(=O)NC(C)(C)C)c1 [Compound 134, N-(tert-butyl)-3-(5″-(ethylsulfonamido)dispiro[cyclopropane-1,1′-cyclohexane-4′,3″-indoline]-1″-carbonyl)benzenesulfonamide] | 104 ± 7 | 109 ± 2 | 61 ± 10 | 89 ± 7 | 94 ± 5 | 4 | TGI ([1]; 10 mg/kg BID PO): 60 ± 17%; TGI ([1]; 30 mg/kg BID PO, subfigure 1D): 111 ± 1%; TGI ([1]; 30 mg/kg BID PO, subfigure printed 1R): 110 ± 1%; TGI ([1]; 60 mg/kg BID PO): 112 ± 1% |
| 11 | 10600 | 38 | 0.55 | 5e-06 | 9.7 | 11 | CC(C)(C)NS(=O)(=O)c1cccc(C(=O)N2CC3(CCC4(CC4)CC3)c3cc(NS(C)(=O)=O)ccc32)c1 [Compound 22, N-(tert-butyl)-3-(5″- (methylsulfonamido)dispiro[cyclo-propane-1,1′-cyclohexane-4′,3″-indoline]-1″-carbonyl)benzenesulfonamide] | 72 ± 17 | 82 ± 10 | 30 ± 15 | 72 ± 6 | 82 ± 9 | 7.8 | TGI ([1]; 10 mg/kg QD PO): 24 ± 26%; IC50 [6]: 9.4 nM |
| 21 | 7220 | 32 | 0.83 | 6.11e-06 | 22 | 19 | CC(C)(C)NS(=O)(=O)c1cc(C(=O)N2CC3(CCC4(CC4)CC3)c3cc(NS(C)(=O)=O)ccc32)ccc1F [Compound 159, N-(tert-butyl)-2-fluoro-5-(5″- (methylsulfonamido)dispiro[cyclopropane-1,1′-cyclohexane-4′,3″-indoline]-1″-carbonyl)benzenesulfonamide] |  |  |  |  |  | 15 |  |

| Structure (SMILES) | IC50 ([2]; HCC15, 168 h) [nM] | kon (on-rate from binding kinetics assay) ([4]; global progress curve analysis) [M⁻¹ s⁻¹] | disc. t1/2 (dissociation half-life ln(2)/koff) [4] [h] | Ki [4] [nM] | koff [4] [s⁻¹] | IC50 ([5]; Homo sapiens, OVCAR-3, 168 h) [nM] | IC50 [6, 8] [nM] | TGI ([1]; 30 mg/kg QD PO) [%] | TGI ([1]; 60 mg/kg QD PO) [%] | TGI ([3]; 10 mg/kg BID PO) [%] | TGI ([3]; 30 mg/kg BID PO) [%] | TGI ([3]; 60 mg/kg BID PO) [%] | IC50 ([7]; Homo sapiens, 168 h) [nM] | further results |
| --- | --- | --- | --- | --- | --- | --- | --- | --- | --- | --- | --- | --- | --- | --- |
| CS(=O)(=O)Nc1ccc2c(c1)C1(CCC3(CC3)CC1)CN2C(=O)c1cccc(C(O)C2CCCC2)c1 (single isomer, unassigned) [Compound 165b] |  | 11900 | 4.2 | 3.9 |  |  | 10 |  |  |  |  |  |  | IC50 [2]: 46 nM; koff (off-rate from binding kinetics assay) ([4]; global progress curve analysis): 4.72e-05 s⁻¹; IC50 [5]: 57 nM; IC50 [7]: 38 nM |
